Reference: patent publication US8148392B2, “2-indolyl imidazo [4,5-d] phenanthroline derivatives and their use in the treatment of cancer” (Lorus Therapeutics Inc., priority 2005, dated 2012)
Entries after “also recorded” stand apart in the source; their conditions may differ.

Assays:
[1] = tested on: HT-29 cells; test: Effect of exogenous metals on growth inhibition of HT-29 cells (XTT); format: cell-based, human; conditions: HT-29, 5 days; for effect of exogenous zinc on growth inhibition: ZnCl2 (100 μM)
Experimental: To determine whether metal chelation is involved in the growth inhibitory activity of compounds of Formula I, exogenous metals (ZnCl2, FeCl2.4H2O, FeCl3.4H2O, MgCl2, at 100 μM) were incubated with HT-29 cells, simultaneously with control vehicle DMSO, compound 3 (5 μM), or compound 13 (25 μM), for 5 days. […] Growth inhibition by compound 13 is predicted to occur through a different mechanism than compound 3.
To determine whether chelation of copper is involved in the growth inhibitory activity of compounds of Formula I, HT-29 cells were incubated with up to 5 μM of compound 3, in the presence or absence of 25 μM CuSO4.5H20 for 5 days.
To determine whether metal chelation is involved in the growth inhibitory activity of compound 3, various concentrations of exogenous metals were incubated with HT-29 cells, simultaneously with various concentrations of compound 3, for 5 days. The exogenous metals tested were: ZnCl2 (zinc), CuSO4.5H20 (copper), FeCl2 (iron II), FeCl3.4H20 (iron III), MgCl2 (magnesium), and CaCl2.2H20 (calcium). HT-29 cells (4×10^3/well) in 100 μL volume of the growth medium were seeded in 96-well cell culture plates and incubated overnight at 37° C. The medium was removed and replaced with a total volume of 100 μl growth medium containing concentrations of metal ions as shown in FIG. 5 with compound 3 or 0.1% DMSO vehicle control. After incubation of the cells at 37° C. for 5 days, cell viability was quantitated using the XTT (sodium 3′-[1-(phenylamino-carbonyl)-3,4-tetrazolium}-bis (4-methoxy-6-nitro) benzene sulfonic acid hydrate) calorimetric assay (Roche Applied Science, Penzberg, Germany). XTT labeling reagent (1 mg/mL) was mixed with electron-coupling reagent, following the manufacturer's instructions, and 50 μl of the mixture was added directly to the cells cultured in 100 μl growth medium. The plates were further incubated at 37° C. for 4 hours and the absorbance of each well was measured by a multi-well spectrophotometer (Bio-Tek Instruments Inc.) at 460 nm. The data were adjusted relative to the blank, and were expressed as % of cell growth compared to the DMSO control.
To determine the ability of compounds 5 and 7 to chelate metals in cells, exogenous metals were added to HT-29 cells, simultaneously with various concentrations of compounds 5 and 7. Briefly, HT-29 cells were treated with various concentrations compounds 5 and 7, plus or minus copper (25 μM CuSO4.5H20) or zinc (100 μM of ZnCl2), for 5 days. Cell viability was determined by XTT assay. The effects of copper and zinc on growth inhibition of HT-29 cells are shown in FIG. 6A for compound 5 and in FIG. 6B for compound 7.
Effect of metal ion supplements on compound 3-mediated cell growth inhibition of HT-29 cells was examined by XTT cell proliferation assay.

[2] = tested on: Cyclin D1; test: Cyclin D1 mRNA in HT-29 tumour xenografts, RT-PCR; format: in vivo, CD-1 female nude mice; conditions: HT-29 xenograft, versus vehicle
Experimental: The ability of compound 3 to modulate expression of Cyclin D1 was determined using the HT-29 colon tumour xenograft model as described in Example 26. The expression of Cyclin D1 mRNA was analyzed by real-time polymerase chain reaction as described in Example 30. […] The results of this experiment combined with the results described for the effect of compound 3 in vivo on KLF4 and P21 expression as described in Examples 30 and 31 are shown in FIG. 20.
Correlation between zinc-sensitive transcription factor MTF-1 and a cell cycle regulator Cyclin D1 expression in HT-29 colon cancer xenograft tissues is shown in FIG. 30. Based on the presence of putative MTF-1-binding DNA sequences in Cyclin D1 gene promoter region (shown in FIG. 30A), expression levels of MTF-1 and Cyclin D1 in xenograft tissues were examined by RT-PCR, using tissue RNA extract.
To examine the effect of compound 3-mediated changes in KLF4 and Cyclin D1 expressions in vivo, the expressions of respective genes in xenograft tissues of vehicle control (Lutrol) and compound 3-treated HT-29 colon cancer cell-transplanted mice were analyzed by RT-PCR (FIG. 46). Briefly, KLF4 and Cyclin D1 gene expression in HT-29 xenograft tissues after 14 days treatment with compound 3 was measured as follows. The mice subcutaneously transplanted with HT-29 cells were treated with vehicle control (administerd i.p.) or 100 mg/kg compound 3 (administered i.p.) for 14 days (n=6 in each group). Total RNA was extracted and gene expression level was determined by RT-PCR. KLF4 and Cyclin D1 gene expressions were normalized with β-actin gene expression in the same sample. […]
The tumor regression efficacy of compound 3 was assessed in compound 3-treated HT-29-transplanted athymic mice (FIG. 54A), and correlated with gene expressions of MTF-1, KLF4 and Cyclin D1 in HT-29 xenograft tissues (FIG. 54B). […] The tumor size was measured during the course of treatment using calipers (FIG. 54A). […] The tumor tissues were excised, frozen immediately and stored at −80° C. until RNA extraction and gene expression was analyzed by RT-PCR (FIG. 54B). […]

[3] = 25 μM CuSO4, low concentrations of compound (less than 2 μM)

Cc1[nH]c2ccccc2c1-c1nc2c3cccnc3c3ncccc3c2[nH]1 [Compound 3]
effect of iron(III), magnesium and calcium on growth inhibition [1]: essentially no effect | effect of exogenous copper on growth inhibition ([1]; 25 μM CuSO4, high concentrations of compound (>2.5 μM)): significantly enhanced the activity | effect of exogenous copper on growth inhibition [1, 3]: Copper impaired the growth inhibitory activities | effect of exogenous zinc on growth inhibition [1]: completely impaired; also recorded: impaired the growth inhibitory activities; also recorded: completely reversed by zinc only | effect of excess iron and magnesium on growth inhibition ([1]; metals at 100 μM, compound 3 5 μM): no effect | Cyclin D1 expression in tumour xenografts [2]: consistently reduced the expression of Cyclin D1 | Cyclin D1 expression in tumour xenografts ([2]; listed as compound 3): decreased Cyclin D1 expression; also recorded: decrease in MTF-1 and Cyclin D1 gene expressions

Cc1[nH]c2ccc(F)cc2c1-c1nc2c3cccnc3c3ncccc3c2[nH]1 [Compound 7]
effect of exogenous copper on growth inhibition [1, 3]: copper impaired the activity only at low concentrations | effect of exogenous zinc on growth inhibition [1]: zinc impaired the growth inhibitory activities | Cyclin D1 expression in tumour xenografts [2]: decreased Cyclin D1 expression
